Measured values reported in PubChem BioAssay AID256 (DTP/NCI, 2004).
“And” between values parts separate entries of the source, which are not always exact repeats. Equal values may be shown once. Toxic doses and inconclusive results are not listed. Rule for the calls: active = survival T/C of 150% or more; inactive = T/C below 125% in these data.

System: CD2F1 mice, L1210 leukemia ip, survival T/C
Assay: NCI In Vivo Anticancer Drug Screen. Data for tumor model L1210 Leukemia (intraperitoneal) in CD2F1 (CDF1) mice
Settings: higher = longer survival
Summary of the method: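 Activity against a transplanted murine tumor was judged by comparing the compound group with a vehicle group. The outcome in the treated animals was divided by that in the controls.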

[1] = endpoint: mean survival time, dose: 100.0 mg/kg/injection, schedule: Q01DX009 (ip), vehicle: saline with Tween-80
[2] = endpoint: mean survival time, dose: 100.0 mg/kg/injection, schedule: Q04DX003 (ip), vehicle: saline with Tween-80
[3] = endpoint: mean survival time, dose: 200.0 mg/kg/injection, schedule: Q01DX009 (ip), vehicle: saline with Tween-80
[4] = endpoint: mean survival time, dose: 200.0 mg/kg/injection, schedule: Q04DX003 (ip), vehicle: saline with Tween-80
[5] = endpoint: mean survival time, dose: 400.0 mg/kg/injection, schedule: Q01DX009 (ip), vehicle: saline with Tween-80
[6] = endpoint: mean survival time, dose: 400.0 mg/kg/injection, schedule: Q04DX003 (ip), vehicle: saline with Tween-80
[7] = endpoint: mean survival time, dose: 100.0 mg/kg/injection, schedule: Q01DX009 (ip), vehicle: saline
[8] = endpoint: mean survival time, dose: 100.0 mg/kg/injection, schedule: Q01DX001 (ip), vehicle: saline with Tween-80
[9] = endpoint: mean survival time, dose: 200.0 mg/kg/injection, schedule: Q01DX001 (ip), vehicle: saline with Tween-80
[10] = endpoint: mean survival time, dose: 400.0 mg/kg/injection, schedule: Q01DX001 (ip), vehicle: saline with Tween-80

Measured: T/C

CCCCCCCC(=O)Nc1ncnc2c1ncn2C1OC(COC(C)=O)C(OC(C)=O)C1OC(C)=O (stereo not given)
inactive: endpoint: mean survival time, dose: 12.5 mg/kg/injection, schedule: Q01DX005 (ip), vehicle: distilled water + Tween-80 98 % of control | endpoint: mean survival time, dose: 25.0 mg/kg/injection, schedule: Q01DX005 (ip), vehicle: distilled water + Tween-80 91 % of control | endpoint: mean survival time, dose: 50.0 mg/kg/injection, schedule: Q01DX005 (ip), vehicle: distilled water + Tween-80 98 % of control | endpoint: mean survival time, dose: 100.0 mg/kg/injection, schedule: Q01DX005 (ip), vehicle: distilled water + Tween-80 94 % of control

COc1ccc(C2(C)N=NC(=C(c3ccccc3)c3ccccc3)O2)cc1 (stereo not given)
inactive: [1] 97 % of control | [2] 91 % of control | [3] 86 % of control | [4] 91 % of control | [5] 86 % of control | [6] 93 % of control

O=C(O)c1c(Cl)cc(Cl)c(-c2c(Cl)cc(Cl)c(C(=O)O)c2Cl)c1Cl
inactive: [1] 103 % of control | [2] 92 % of control | [3] 98 % of control | [4] 98 % of control | [5] 104 % of control | [6] 100 % of control

CC1SC(C)SC(C)S1 (stereo not given)
inactive: endpoint: mean survival time, dose: 75.0 mg/kg/injection, schedule: Q01DX001 (ip), vehicle: saline with Tween-80 98 % of control | endpoint: mean survival time, dose: 150.0 mg/kg/injection, schedule: Q01DX001 (ip), vehicle: saline with Tween-80 98 % of control | endpoint: mean survival time, dose: 300.0 mg/kg/injection, schedule: Q01DX001 (ip), vehicle: saline with Tween-80 102 % of control

CCCCCCCCCCCCCCCCOc1ccc(C(C)=O)cc1
inactive: [3] 89 % of control | [5] 96 % of control

O=[N+]([O-])c1cccc(N=Cc2ccc3c(c2)OCO3)c1
inactive: endpoint: mean survival time, dose: 100.0 mg/kg/injection, schedule: Q04DX003 (ip), vehicle: alcohol 105 % of control | endpoint: mean survival time, dose: 200.0 mg/kg/injection, schedule: Q04DX003 (ip), vehicle: alcohol 108 % of control | endpoint: mean survival time, dose: 400.0 mg/kg/injection, schedule: Q04DX003 (ip), vehicle: alcohol 97 % of control

CCOc1cc(C(F)(F)F)nc2c3c(cc(OC)c12)CCCN3CC
inactive: [1] 98 % of control | [5] 90 % of control

c1cc[n+](Cc2nc3ccccc3[nH]2)cc1
inactive: endpoint: mean survival time, dose: 25.0 mg/kg/injection, schedule: Q01DX009 (ip), vehicle: saline 97 % of control and 100 % of control | endpoint: mean survival time, dose: 25.0 mg/kg/injection, schedule: Q04DX003 (ip), vehicle: saline 103 % of control and 100 % of control | endpoint: mean survival time, dose: 50.0 mg/kg/injection, schedule: Q01DX009 (ip), vehicle: saline 100 % of control | endpoint: mean survival time, dose: 50.0 mg/kg/injection, schedule: Q04DX003 (ip), vehicle: saline 100 % of control and 106 % of control | [7] 101 % of control and 97 % of control | endpoint: mean survival time, dose: 100.0 mg/kg/injection, schedule: Q04DX003 (ip), vehicle: saline 97 % of control and 103 % of control

CC1(C)N=C(N)N=C(N)N1c1cccc(Cl)c1Cl
inactive: endpoint: mean survival time, dose: 5.0 mg/kg/injection, schedule: Q04DX003 (ip), vehicle: saline 105 % of control | endpoint: mean survival time, dose: 10.0 mg/kg/injection, schedule: Q04DX003 (ip), vehicle: saline 112 % of control | endpoint: mean survival time, dose: 20.0 mg/kg/injection, schedule: Q04DX003 (ip), vehicle: saline 115 % of control

O=P(Nc1ccccc1)(OCc1ccccc1)N(CCCl)CCCl (stereo not given)
inactive: endpoint: mean survival time, dose: 62.5 mg/kg/injection, schedule: Q01DX010 (ip), vehicle: saline 104 % of control | endpoint: mean survival time, dose: 125.0 mg/kg/injection, schedule: Q01DX010 (ip), vehicle: saline 103 % of control | endpoint: mean survival time, dose: 250.0 mg/kg/injection, schedule: Q01DX010 (ip), vehicle: saline 101 % of control

COC(=O)C1N=C1c1ccccc1.COC(=O)C1N=C1c1ccccc1.[Cl][Pd][Cl] (stereo not given)
inactive: endpoint: mean survival time, dose: 3.13 mg/kg/injection, schedule: Q04DX003 (ip), vehicle: distilled water + Tween-80 95 % of control | endpoint: mean survival time, dose: 6.25 mg/kg/injection, schedule: Q04DX003 (ip), vehicle: distilled water + Tween-80 103 % of control | endpoint: mean survival time, dose: 12.5 mg/kg/injection, schedule: Q04DX003 (ip), vehicle: distilled water + Tween-80 91 % of control | endpoint: mean survival time, dose: 25.0 mg/kg/injection, schedule: Q04DX003 (ip), vehicle: distilled water + Tween-80 103 % of control | endpoint: mean survival time, dose: 50.0 mg/kg/injection, schedule: Q04DX003 (ip), vehicle: distilled water + Tween-80 101 % of control | endpoint: mean survival time, dose: 100.0 mg/kg/injection, schedule: Q04DX003 (ip), vehicle: distilled water + Tween-80 101 % of control | endpoint: mean survival time, dose: 200.0 mg/kg/injection, schedule: Q04DX003 (ip), vehicle: distilled water + Tween-80 103 % of control

COC1CC(N)C(O)C(C)O1 (stereo not given)
inactive: endpoint: mean survival time, dose: 12.5 mg/kg/injection, schedule: Q01DX009 (ip), vehicle: water 103 % of control | endpoint: mean survival time, dose: 25.0 mg/kg/injection, schedule: Q01DX009 (ip), vehicle: water 101 % of control | endpoint: mean survival time, dose: 50.0 mg/kg/injection, schedule: Q01DX009 (ip), vehicle: water 107 % of control | endpoint: mean survival time, dose: 100.0 mg/kg/injection, schedule: Q01DX009 (ip), vehicle: water 105 % of control | endpoint: mean survival time, dose: 200.0 mg/kg/injection, schedule: Q01DX009 (ip), vehicle: water 92 % of control

COc1ccc(OC)c(C2=CCCCCC2)c1
inactive: [2] 101 % of control | [4] 102 % of control | [6] 90 % of control

CCCC(C)(COC(N)=O)COC(N)=O
inactive: [2] 96 % of control | [4] 98 % of control | [6] 96 % of control

O=C(COc1cccc(Cl)c1)Nc1ccc(S(=O)(=O)F)cc1
inactive: [8] 97 % of control | [9] 95 % of control | [10] 91 % of control

OCC1C=CCC=C1
inactive: [7] 95 % of control | endpoint: mean survival time, dose: 200.0 mg/kg/injection, schedule: Q01DX009 (ip), vehicle: saline 107 % of control | endpoint: mean survival time, dose: 400.0 mg/kg/injection, schedule: Q01DX009 (ip), vehicle: saline 101 % of control

CC12C=C(C(=O)c3ccccc3)C(CC1)C2(C)C (stereo not given)
inactive: [1] 95 % of control | [2] 96 % of control | [3] 97 % of control | [4] 93 % of control | [5] 97 % of control | [6] 91 % of control

CC(=O)Nc1cccc(C(F)(F)F)c1
inactive: endpoint: mean survival time, dose: 50.0 mg/kg/injection, schedule: Q01DX009 (ip), vehicle: Klucel (hydroxypropylcellulose) (HPC) 100 % of control | endpoint: mean survival time, dose: 100.0 mg/kg/injection, schedule: Q01DX009 (ip), vehicle: Klucel (hydroxypropylcellulose) (HPC) 93 % of control | endpoint: mean survival time, dose: 200.0 mg/kg/injection, schedule: Q01DX009 (ip), vehicle: Klucel (hydroxypropylcellulose) (HPC) 100 % of control

COc1cc(N)ccc1NC(=O)c1ccccc1
inactive: endpoint: mean survival time, dose: 6.25 mg/kg/injection, schedule: Q01DX009 (ip), vehicle: saline with Tween-80 94 % of control | endpoint: mean survival time, dose: 12.5 mg/kg/injection, schedule: Q01DX009 (ip), vehicle: saline with Tween-80 94 % of control and 100 % of control | endpoint: mean survival time, dose: 25.0 mg/kg/injection, schedule: Q01DX009 (ip), vehicle: saline with Tween-80 93 % of control and 105 % of control

CN1CCC(O)(c2ccccc2C2=NC(C)(C)CO2)CC1
inactive: endpoint: mean survival time, dose: 50.0 mg/kg/injection, schedule: Q04DX002 (ip), vehicle: saline with Tween-80 96 % of control | [8] 103 % of control | endpoint: mean survival time, dose: 100.0 mg/kg/injection, schedule: Q04DX002 (ip), vehicle: saline with Tween-80 101 % of control | [9] 102 % of control | endpoint: mean survival time, dose: 200.0 mg/kg/injection, schedule: Q04DX002 (ip), vehicle: saline with Tween-80 108 % of control

O=C(Cc1ccccc1)SC(=O)Cc1ccccc1
inactive: [8] 102 % of control | [9] 94 % of control | [10] 102 % of control

COC(=O)C12C=CC=CC3C(C=C1)NC(=O)C32 (stereo not given)
inactive: endpoint: median survival time, dose: 25.0 mg/kg/injection, schedule: Q04DX002 (ip), vehicle: saline with Tween-80 122 % of control | endpoint: median survival time, dose: 50.0 mg/kg/injection, schedule: Q04DX002 (ip), vehicle: saline with Tween-80 100 % of control | endpoint: median survival time, dose: 100.0 mg/kg/injection, schedule: Q04DX002 (ip), vehicle: saline with Tween-80 100 % of control | endpoint: median survival time, dose: 200.0 mg/kg/injection, schedule: Q04DX002 (ip), vehicle: saline with Tween-80 111 % of control

COc1cc2cc3c4ccc(OC)c(OC)c4cc[n+]3c(C)c2cc1OC (tested in a mixture with another compound)
inactive: endpoint: mean survival time, dose: 6.25 mg/kg/injection, schedule: Q01DX009 (ip), vehicle: other 108 % of control | endpoint: mean survival time, dose: 12.5 mg/kg/injection, schedule: Q01DX009 (ip), vehicle: other 106 % of control | endpoint: mean survival time, dose: 25.0 mg/kg/injection, schedule: Q01DX009 (ip), vehicle: other 116 % of control | endpoint: mean survival time, dose: 50.0 mg/kg/injection, schedule: Q01DX009 (ip), vehicle: other 97 % of control
